Source: US7402559B2, “Composition and method of treatment for urogenital conditions” (MSH Pharma, Incorporated, priority 1999, dated 2008)
Bridge positions count the residues as written; N and C are the ends. Ends that are not written are not given here. I, II: the chains in the order shown.

Legend:
[1] = system: C. albicans; assay: Candida CFU, CKPV dimer versus KPV: C. albicans; assay type: cell-based; conditions: FIG. 17; same molarity (10^−4 M)
Method: (§1) C. albicans, C. glabrata. and C. krusei (clinical isolates) were obtained from the collection of the laboratory of Microbiology, Ospedale Maggiore di Milano. Six different isolates for each yeast strain were used. Candida Sp. cells were maintained on Sabouraud's agar slants and periodically transferred to Sabouraud's agar plates and incubated for 48 h at 28° C. To prepare stationary growth phase yeast, a colony was taken from the agar plates and transferred into 5 ml Sabouraud-dextrose broth and incubated for 48 h at 32° C. Cells were centrifuged at 1,000× g for 10 minutes and the pellet was washed twice with distilled water. Cells were counted and suspended in distilled water to obtain 10^7 yeast cells/ml. Viability, determined by the exclusion of 0.01% methylene blue, remained >98%.
(§2) Control tubes received 100 μl of distilled water. All the tests were run in triplicate. After 2 h incubation at 37° C., yeast suspension from each vial was diluted with distilled water to obtain approximately 100 organisms/ml. One milliliter aliquots from each tube were dispensed on blood agar plates and incubated for 48 h at 37° C. to count CFUs. Organism viability was estimated from the number of CFUs in each plate. Only experiments in which CFUs in control plates were between 80 and 120 with a variability in counts less than 10% were used to evaluate effects of the peptides. […]

[2] = system: S. aureus (ATCC 29213); assay: S. aureus colony formation (viability); assay type: cell-based, Staphylococcus aureus; conditions: FIG. 1; significant at peptide concentrations of 10^−12 to 10^−4 M; 2 h at 37° C.
Method: Cultures of S. aureus (ATCC 29213) were obtained from the collection of the Department of Microbiology, Ospedale Maggiore di Milano. […] Cells were then washed in cold distilled water and diluted with HBSS to a concentration of 100 organisms/ml. One-milliliter aliquots were dispensed on blood agar plates and incubated for 24 hours at 37° C. Viability of the microorganisms was estimated from the colonies formed. In another set of experiments, 500 units of urokinase, a S. aureus growth enhancer, were also incubated with the bacteria (10^5/100 ml ) for four hours at 37° C. in a shaking water bath together with the peptides.

[3] = system: C. glabrata; assay: Candida CFU, CKPV dimer versus KPV: C. glabrata; assay type: cell-based; conditions: FIG. 19; same molarity (10^−4 M)
Method: as §1, §2

[4] = system: C. krusei; assay: Candida CFU, CKPV dimer versus KPV: C. krusei; assay type: cell-based; conditions: FIG. 18; same molarity (10^−4 M)
Method: as §1, §2

[5] = system: C. albicans; assay: C. albicans colony formation (CFU viability); assay type: cell-based, Candida albicans; conditions: FIG. 3; 10^−12 to 10^−4 M; p<0.01 vs. control
Method: Clinical isolates of C. albicans were obtained from the collection of the Department of Microbiology, Ospedale Maggiore di Milano. Cultures of C. albicans were maintained on Sabouraud's agar slants and periodically transferred to Sabouraud's agar plates and incubated for 48 hours at 28° C. To prepare stationary growth-phase yeast, a colony was taken from the agar plate, transferred into 30 ml of Sabouraud-dextrose broth, and incubated for 72 hours at 32° C. Cells were centrifuged at 1000× g for ten minutes, and the pellet was washed twice with distilled water. Cells were counted and suspended in Hank's balanced salt solution (“HBSS”) to the desired concentration.
Cells were then washed in cold distilled water and diluted with HBSS to a concentration of 100 organisms/ml. One-milliliter aliquots were then dispensed on blood agar plates and incubated for 48 hours at 37° C. The organism's viability was estimated from the number of colonies formed.
[…] The effects of forskolin and ddAdo on the ability of C. albicans to form colonies were determined according to the procedures described in Example II.

Question: “VPKC-s-s-CKPV (disulfide I:1-II:1; not fully specified (N-terminus, C-terminus)) [CKPV dimer]” was tested. Which “effectiveness relative to KPV monomer, C. albicans” value [1] did it give?
Answer: The value was “more than twice as effective”.

Question: And the “S. aureus colony formation” value [2]?
Answer: The value was “inhibited”.

Question: And the “effectiveness relative to KPV monomer, C. glabrata” value [3]?
Answer: The value was “more than twice as effective”.

Question: What about the “effectiveness relative to KPV monomer, C. krusei” value [4] of the same substance?
Answer: The value was “more than twice as effective”.

Question: What about the “ability of C albicans to form colonies” value [5] of the same substance?
Answer: Its value is “greatly reduced”.
